Data taken from publication PMC5679629, “Flavin-containing monooxygenase 3 (FMO3) role in busulphan metabolic pathway” (PLoS ONE, 2017).

Key:
Assay in all cases: THT disappearance with recombinant cDNA-expressed enzyme microsomes
Type in all cases: in vitro ADME
CYP1A1 = molecular target: T1, CYP1A1 (Homo sapiens, UniProt P04798); details: 25μM THT, 35pmol CYP/mL
T1 construct: purchased BD Biosciences; host or cells: baculovirus infected insect cells
T1 sequence (P04798 1-512): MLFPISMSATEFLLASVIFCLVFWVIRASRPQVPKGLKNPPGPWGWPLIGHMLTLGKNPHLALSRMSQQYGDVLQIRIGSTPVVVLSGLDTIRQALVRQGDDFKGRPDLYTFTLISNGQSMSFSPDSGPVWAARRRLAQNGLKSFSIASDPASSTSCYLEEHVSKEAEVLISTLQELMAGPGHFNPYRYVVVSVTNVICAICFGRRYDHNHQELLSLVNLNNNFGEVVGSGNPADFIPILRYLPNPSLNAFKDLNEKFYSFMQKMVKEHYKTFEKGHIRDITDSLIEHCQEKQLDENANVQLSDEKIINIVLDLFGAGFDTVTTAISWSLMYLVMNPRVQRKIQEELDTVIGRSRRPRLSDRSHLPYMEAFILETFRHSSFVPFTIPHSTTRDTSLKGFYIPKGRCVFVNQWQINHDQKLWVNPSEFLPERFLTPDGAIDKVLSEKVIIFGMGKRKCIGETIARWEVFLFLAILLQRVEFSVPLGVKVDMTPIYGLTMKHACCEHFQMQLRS
Method: (§1) To identify the enzymes involved in Bu metabolism, 11 microsomal batches (BD Biosciences, Stockholm, Sweden), each containing a separate cDNA-expressed enzyme, were incubated with 25μM THT. The microsomes contained FMO3, CYP1A1, CYP1A2, CYP2B6, CYP2C8, CYP2C9, CYP2C19, CYP2D6, CYP2E1, CYP3A4 or CYP4A11. Time curves (0, 5, 15, 30 and 60min) were performed at a concentration of 0.35mg protein /mL for FMO3 and 35pmol CYP/mL for the CYP enzymes. The recombinant enzymes were produced from human cDNA expressing each of them using baculovirus expression system. Baculovirus infected insect cells were used to prepare these microsomes.
(§2) Incubations were performed in triplicate and negative controls (excluding NADPH, microsomes, THT or by terminating the incubations before the addition of NADPH) were run in parallel.
(§3) To measure THT and the secondary metabolite, sulfolane, the reactions were terminated by adding dichloromethane. Samples (180μL) were added to 10μM nicotine (20μL, Merck, Hoherbrunn, Germany), used as an internal standard, before extraction. The matrix was extracted by liquid-liquid extraction with dichloromethane (equal volumes, 200μL) after 30 sec of high speed vortexing. After extraction and centrifugation at 16000 g for 10 min, the organic phase was transferred into GC-MS tubes. […] Samples (180μL) were added to 10 μM of 3-methylsulfolane (20μL, TCI, Tokyo, Japan), used as an internal standard. The matrix was lyophilized (< 1 mbar at 40°C under N2 stream) to dryness, the residue was dissolved in 10 μL water and 200 μL of ethyl acetate was added for extraction. Samples were vortexed for 30 sec at high speed and centrifuged at 16000 g for 10 min. The organic phase was transferred to GC-MS tubes.
(§4) Concentrations of THT and its metabolites were measured using GC-MS [18] after validation for use with microsomal incubations according to the international guidelines.

CYP3A4 = molecular target: T2, CYP3A4 (Homo sapiens, UniProt P08684); details: 25μM THT, 35pmol CYP/mL
T2 construct: purchased BD Biosciences; host or cells: baculovirus infected insect cells
Method: as §1, §2, §3, §4

CYP2C19 = molecular target: T3, CYP2C19 (Homo sapiens, UniProt P33261); details: 25μM THT, 35pmol CYP/mL
T3 construct: purchased BD Biosciences; host or cells: baculovirus infected insect cells
Method: as §1, §2, §3, §4

CYP2D6 = molecular target: T4, CYP2D6 (Homo sapiens, UniProt P10635); details: 25μM THT, 35pmol CYP/mL
T4 construct: purchased BD Biosciences; host or cells: baculovirus infected insect cells
Method: as §1, §2, §3, §4

CYP2C9 = molecular target: T5, CYP2C9 (Homo sapiens, UniProt P11712); details: 25μM THT, 35pmol CYP/mL
T5 construct: purchased BD Biosciences; host or cells: baculovirus infected insect cells
Method: as §1, §2, §3, §4

FMO3 = molecular target: T6, FMO3 (Homo sapiens, UniProt P31513); details: 25μM THT, 0.35mg protein/mL
T6 construct: purchased BD Biosciences; host or cells: baculovirus infected insect cells
T6 sequence (P31513 1-532): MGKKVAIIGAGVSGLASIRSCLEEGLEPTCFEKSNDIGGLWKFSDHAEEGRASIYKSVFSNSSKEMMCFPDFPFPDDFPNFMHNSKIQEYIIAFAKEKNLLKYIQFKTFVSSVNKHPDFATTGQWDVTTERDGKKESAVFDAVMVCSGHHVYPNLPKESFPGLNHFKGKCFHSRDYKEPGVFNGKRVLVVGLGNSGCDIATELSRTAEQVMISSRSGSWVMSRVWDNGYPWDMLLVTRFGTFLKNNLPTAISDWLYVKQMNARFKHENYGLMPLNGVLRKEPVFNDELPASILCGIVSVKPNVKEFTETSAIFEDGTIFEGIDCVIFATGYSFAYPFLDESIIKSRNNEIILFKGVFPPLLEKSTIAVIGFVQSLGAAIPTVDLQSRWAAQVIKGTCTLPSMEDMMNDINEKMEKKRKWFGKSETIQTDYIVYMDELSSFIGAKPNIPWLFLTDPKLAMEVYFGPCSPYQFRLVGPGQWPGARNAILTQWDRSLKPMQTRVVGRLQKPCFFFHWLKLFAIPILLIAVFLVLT
Method: as §1, §2, §3, §4

CYP2E1 = molecular target: T7, CYP2E1 (Homo sapiens, UniProt P05181); details: 25μM THT, 35pmol CYP/mL
T7 construct: purchased BD Biosciences; host or cells: baculovirus infected insect cells
Method: as §1, §2, §3, §4

CYP4A11 = molecular target: T8, CYP4A11 (Homo sapiens, UniProt Q02928); details: 25μM THT, 35pmol CYP/mL
T8 construct: purchased BD Biosciences; host or cells: baculovirus infected insect cells
T8 sequence (Q02928 5-519): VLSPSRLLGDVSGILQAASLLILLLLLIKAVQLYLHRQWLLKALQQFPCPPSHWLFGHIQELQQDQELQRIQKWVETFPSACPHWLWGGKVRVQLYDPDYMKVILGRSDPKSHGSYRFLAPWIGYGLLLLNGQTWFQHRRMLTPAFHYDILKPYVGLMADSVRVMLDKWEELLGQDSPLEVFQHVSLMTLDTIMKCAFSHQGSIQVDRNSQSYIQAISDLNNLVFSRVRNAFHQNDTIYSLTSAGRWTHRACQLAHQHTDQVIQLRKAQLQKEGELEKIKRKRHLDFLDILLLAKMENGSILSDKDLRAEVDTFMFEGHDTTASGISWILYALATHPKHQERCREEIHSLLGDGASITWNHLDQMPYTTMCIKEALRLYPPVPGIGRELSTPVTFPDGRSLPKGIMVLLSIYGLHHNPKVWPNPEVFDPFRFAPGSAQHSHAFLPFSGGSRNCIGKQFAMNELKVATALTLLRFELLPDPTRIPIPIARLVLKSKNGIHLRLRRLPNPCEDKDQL
Method: as §1, §2, §3, §4

T5 sequence (P11712 whole entry): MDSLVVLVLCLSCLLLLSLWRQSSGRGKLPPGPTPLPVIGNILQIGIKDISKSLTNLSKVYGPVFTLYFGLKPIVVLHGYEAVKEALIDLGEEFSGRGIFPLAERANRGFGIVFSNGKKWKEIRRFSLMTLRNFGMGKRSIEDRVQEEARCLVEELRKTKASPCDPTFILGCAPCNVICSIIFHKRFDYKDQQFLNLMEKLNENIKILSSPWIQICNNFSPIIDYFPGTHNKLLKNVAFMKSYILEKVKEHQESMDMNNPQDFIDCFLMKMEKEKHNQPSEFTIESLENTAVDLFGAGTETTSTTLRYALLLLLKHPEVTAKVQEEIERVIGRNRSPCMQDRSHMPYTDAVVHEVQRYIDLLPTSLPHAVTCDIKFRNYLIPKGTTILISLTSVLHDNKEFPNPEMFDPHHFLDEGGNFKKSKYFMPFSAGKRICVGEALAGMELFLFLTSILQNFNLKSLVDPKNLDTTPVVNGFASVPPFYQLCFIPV
T4 sequence (P10635 whole entry): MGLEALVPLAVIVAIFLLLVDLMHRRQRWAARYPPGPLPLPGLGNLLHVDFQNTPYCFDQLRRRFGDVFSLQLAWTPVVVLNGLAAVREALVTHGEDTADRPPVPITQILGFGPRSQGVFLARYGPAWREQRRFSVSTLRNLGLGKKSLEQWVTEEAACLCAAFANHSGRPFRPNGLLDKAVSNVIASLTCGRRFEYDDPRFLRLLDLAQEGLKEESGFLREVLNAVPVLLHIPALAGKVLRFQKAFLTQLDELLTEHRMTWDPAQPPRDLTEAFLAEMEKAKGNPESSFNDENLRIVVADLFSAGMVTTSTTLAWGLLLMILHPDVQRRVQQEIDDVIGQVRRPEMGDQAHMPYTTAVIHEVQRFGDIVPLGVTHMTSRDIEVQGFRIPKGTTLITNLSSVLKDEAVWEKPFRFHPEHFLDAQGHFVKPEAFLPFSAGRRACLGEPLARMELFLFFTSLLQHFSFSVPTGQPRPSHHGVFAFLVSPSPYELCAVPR
T7 sequence (P05181 whole entry): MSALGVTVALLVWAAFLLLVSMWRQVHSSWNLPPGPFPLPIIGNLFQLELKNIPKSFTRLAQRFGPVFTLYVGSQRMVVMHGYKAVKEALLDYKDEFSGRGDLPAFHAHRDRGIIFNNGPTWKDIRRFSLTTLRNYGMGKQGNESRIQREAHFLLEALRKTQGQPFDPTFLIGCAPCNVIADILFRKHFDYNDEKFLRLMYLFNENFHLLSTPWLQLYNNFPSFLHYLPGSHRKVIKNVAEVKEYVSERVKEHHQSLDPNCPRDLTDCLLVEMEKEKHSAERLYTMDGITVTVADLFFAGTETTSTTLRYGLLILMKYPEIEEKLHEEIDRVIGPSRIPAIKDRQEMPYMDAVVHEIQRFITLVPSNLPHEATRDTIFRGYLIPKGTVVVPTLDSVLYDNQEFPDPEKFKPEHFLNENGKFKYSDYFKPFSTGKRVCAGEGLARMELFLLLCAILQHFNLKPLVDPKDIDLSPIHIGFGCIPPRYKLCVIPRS
T2 sequence (P08684 whole entry): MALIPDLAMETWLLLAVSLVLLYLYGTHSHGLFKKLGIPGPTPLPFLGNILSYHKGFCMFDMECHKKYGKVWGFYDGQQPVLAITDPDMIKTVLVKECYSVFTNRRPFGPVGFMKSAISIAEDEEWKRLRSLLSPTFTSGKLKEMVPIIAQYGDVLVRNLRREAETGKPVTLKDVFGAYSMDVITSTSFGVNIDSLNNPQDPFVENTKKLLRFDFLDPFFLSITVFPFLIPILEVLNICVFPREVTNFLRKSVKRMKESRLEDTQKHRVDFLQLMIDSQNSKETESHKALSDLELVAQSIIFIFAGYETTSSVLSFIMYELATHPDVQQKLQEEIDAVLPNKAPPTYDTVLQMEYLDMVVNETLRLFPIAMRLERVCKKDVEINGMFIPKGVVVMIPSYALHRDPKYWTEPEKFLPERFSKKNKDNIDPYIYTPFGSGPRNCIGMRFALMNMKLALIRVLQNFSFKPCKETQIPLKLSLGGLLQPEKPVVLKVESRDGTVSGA
T3 sequence (P33261 whole entry): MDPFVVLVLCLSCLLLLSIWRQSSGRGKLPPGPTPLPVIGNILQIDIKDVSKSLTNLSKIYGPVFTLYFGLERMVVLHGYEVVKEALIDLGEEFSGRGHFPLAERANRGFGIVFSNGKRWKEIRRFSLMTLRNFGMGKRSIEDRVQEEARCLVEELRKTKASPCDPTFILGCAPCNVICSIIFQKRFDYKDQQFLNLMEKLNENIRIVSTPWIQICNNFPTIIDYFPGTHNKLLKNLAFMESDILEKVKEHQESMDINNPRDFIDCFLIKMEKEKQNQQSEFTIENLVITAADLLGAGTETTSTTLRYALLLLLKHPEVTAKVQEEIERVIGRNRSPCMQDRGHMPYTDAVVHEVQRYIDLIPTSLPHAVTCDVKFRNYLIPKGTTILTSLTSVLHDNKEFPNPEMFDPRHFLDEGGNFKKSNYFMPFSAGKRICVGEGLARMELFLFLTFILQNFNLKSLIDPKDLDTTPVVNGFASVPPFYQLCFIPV

C1CCSC1 [THT, tetrahydrothiophene]
v0 (CYP1A1): 1.68 nmol/min/mL
v0/CYP (CYP1A1): 0.05 nmol/min/pmol CYP
v0 (CYP3A4): 3.66 nmol/min/mL
v0/CYP (CYP3A4): 0.11 nmol/min/pmol CYP
v0 (CYP2C19): 1.51 nmol/min/mL
v0/CYP (CYP2C19): 0.04 nmol/min/pmol CYP
v0 (CYP2D6): 2.24 nmol/min/mL
v0/CYP (CYP2D6): 0.06 nmol/min/pmol CYP
v0 (CYP2C9): 1.64 nmol/min/mL
v0/CYP (CYP2C9): 0.05 nmol/min/pmol CYP
THT disappeared (metabolized) by recombinant FMO3 (FMO3; within 15min): 96%
CLint value (FMO3; FMO3): 709.14 μL/min/mg protein
v0 (FMO3; FMO3): 6.87 nmol/min/mL
v0 (CYP2E1): 1.41 nmol/min/mL
v0/CYP (CYP2E1): 0.04 nmol/min/pmol CYP
v0 (CYP4A11): 2.52 nmol/min/mL
v0/CYP (CYP4A11): 0.07 nmol/min/pmol CYP
